Earlier results as cited in patent US20230381356A1 (priority 2021, published 2023).

Experiments:
[1] = system: Ebola Virus; settings: saturated GITC solution ~3.5M alone
[2] = system: Pixuna virus; settings: GITC alone at or near saturation (~3.5M)
[3] = system: SARS-CoV-2; settings: GITC alone, even in high concentrations
[4] = system: Virus; settings: in <1 minute, final concentration of 1% (v/v)
[5] = system: Pseudorabies Virus
[6] = system: HIV
[7] = system: Xenotropic murine leukemia virus
[8] = system: Bovine Viral Diarrheal Virus

Molecule | inactivation of Ebola Virus [1] | inactivation of Pixuna virus [2] | inactivation of SARS-CoV-2 [3] | log reduction [4] [log] | inactivation of Pseudorabies Virus [5] | inactivation of HIV [6] | inactivation of Xenotropic murine leukemia virus [7] | inactivation of Bovine Viral Diarrheal Virus [8]
N#CS.N=C(N)N [GITC, Guanidine isothiocyanate] | does not inactivate | did not effectively inactivate | 50-75% |  |  |  |  | 
Triton X-100 |  |  |  | 4 | inactivate | inactivate | inactivate | inactivate
